We go through one compound from paper PMC2731040 (BMC Clinical Pharmacology, 2009).

The subject of this experiment is noradrenergic tone. In words: Urinary MHPG-S excretion (surrogate for noradrenergic tone, MAO-A metabolite). It is filed as in vivo, human. The text has this:
The interactions between MAO-A inhibitors and cocaine administered are largely unexplored. […] Therefore, measurement of dopaminergic and noradrenergic tone may be important in predicting toxic events. We measured dopaminergic tone with the surrogate marker of plasma HVA, the major brain metabolite of dopamine, and serum levels of prolactin, a hormone whose secretion is inhibited by dopamine. The surrogate for noradrenergic tone was urine concentrations of MHPG-S. In order to assess the degree of MAO-A and MAO-B inhibition, we assayed concentrations of a substrate of MAO-B, phenylethylamine (PEA). PEA would be expected to increase with MAO-B inhibition, and concentrations of MHPG-S, which is a metabolite of norepinephrine produced by MAO-A primarily in the brain [20], would be expected to decrease.
When subjects were in the GCRC, all urine was collected and volumes recorded. Following each cocaine infusion, urine was collected in fractions from 0 to 24, 24 to 48, and 48 to 72 hours (timed from the start of the infusion). Samples were then frozen at -70°C until analyzed. […] A qualitative screen for drugs of abuse was obtained every other day for the entire study period.
Concentrations of MHPG-S in urine were determined using LC-MS/MS [29]. […] As urinary creatinine excretion is directly related to glomerular filtration and renal blood flow, and urinary creatinine excretion is relatively constant (~1 gm/day), it can be used to estimate concentrations of a substance during a 24 hour urine collection period. Using ratios of the concentrations of MHPG-S to creatinine obtained from assays of these spot urine samples, MGPG-S concentrations during the outpatient period (when subjects would be unlikely to provide accurate 24 hour urine collections) were compared to those from urine samples on inpatient days.

With `COC(=O)[C@H]1[C@@H](OC(=O)c2ccccc2)C[C@@H]2CC[C@H]1N2C` [Cocaine, cocaine], the “Total Amount of MHPG-S Excreted in the 24 Hour Urine Collection” value (Day 3–4 After Cocaine Preselegiline) was 1.44 ± 0.43 mg. In addition, the “Urine MHPG-S/creatinine concentration ratios vs the day before cocaine challenge” value (second day after the first cocaine challenge, p < 0.05) was “increased significantly”.
